Measurements as given in paper PMC5584945, “Evaluation of robenidine analog NCL195 as a novel broad-spectrum antibacterial agent” (PLoS ONE, 2017).
Values after ≈ are worked out from the molar mass of the structure shown. Where two headings read alike, the source gives them in different places.

Key:
S. pneumoniae = assay: MIC, broth micro-dilution (CLSI); assay type: cell-based, Streptococcus pneumoniae; conditions: for MIC90 / MIC / MIC50: Streptococcus pneumoniae
S. aureus = assay: MIC, broth micro-dilution (CLSI); assay type: cell-based, Staphylococcus aureus; conditions: Staphylococcus aureus; for MIC: read-out: MIC
[1] = S1 Table isolates, 5% FBS + 3% washed RBC
[2] = ATCC6303, ATCC 6303 (serotype 3), 5% FBS + 3% washed RBC
[3] = D39/D39LUX (serotype 2), 5% FBS
[4] = ATCC 29213 / MSSA, ATCC29213 MSSA (ST5), absence of FBS
[5] = IRISH 1 – HA-EMRSA (ST8), absence of FBS
[6] = IRISH 2 – HA-EMRSA (ST8), absence of FBS
[7] = MRSA / USA300, USA 300 - MRSA (ST8), absence of FBS
[8] = MRSA, AUS2-MRSA (ST239), absence of FBS
[9] = MRSA, AUS3-MRSA (ST239), absence of FBS
[10] = MRSA, BENGAL BAY PVL+ – CA-MRSA (ST772), absence of FBS
[11] = MRSA, Classic–HA-MRSA (ST250), absence of FBS
[12] = MRSA, NY JAPAN – HA MRSA (ST5), absence of FBS
[13] = MRSA, QLD PVL+ –CA-MRSA (ST93), absence of FBS
[14] = MRSA, ST398–CA-MRSA-V (ST398), absence of FBS
[15] = MRSA, WSPP – PVL neg CA MRSA (ST30), absence of FBS
[16] = S2 Table isolates, absence of FBS
[17] = TAIWAN PVL+ – CA-cMRSA (ST59), absence of FBS
[18] = UK 15 PVL+ – HA-EMRSA (ST22), absence of FBS
[19] = UK 15 – HA-EMRSA (ST22), absence of FBS
[20] = UK 16 – HA- EMRSA (ST36), absence of FBS
[21] = UK 17 – HA-EMRSA (ST247), absence of FBS

CC1(C)S[C@@H]2[C@H](NC(=O)[C@H](N)c3ccccc3)C(=O)N2[C@H]1C(=O)O [Ampicillin]
MIC range (S. pneumoniae; [1]): 0.06 to 1 µg/mL
MIC90 (S. pneumoniae; 21 isolates): 0.5 µg/mL (≈ 1.43 µM)
MIC (S. pneumoniae; A66.1 (serotype 3), 5% FBS): 0.125 µg/mL (≈ 0.358 µM)
MIC (S. pneumoniae; [2]): 0.125 µg/mL
MIC (S. pneumoniae; [3]): 0.125 µg/mL (≈ 0.358 µM)
MIC (S. pneumoniae; EF3030 (serotype 19F), 5% FBS): 0.5 µg/mL (≈ 1.43 µM)
MIC (S. pneumoniae; L82016 (serotype 6B), 5% FBS): 0.06 µg/mL (≈ 0.172 µM)
MIC (S. pneumoniae; P9 (serotype 6A), 5% FBS): 0.06 µg/mL (≈ 0.172 µM)
MIC (S. pneumoniae; P21 (serotype 3), 5% FBS): 0.06 µg/mL (≈ 0.172 µM)
MIC50 (S. pneumoniae; S1 Table isolates, 5% FBS): 0.125 µg/mL (≈ 0.358 µM)
MIC90 (S. pneumoniae; S1 Table isolates, 5% FBS): 0.5 µg/mL (≈ 1.43 µM)
MIC (S. pneumoniae; TIGR4 (serotype 4), 5% FBS): 0.125 µg/mL (≈ 0.358 µM)
MIC (S. pneumoniae; WCH16 (serotype 6A), 5% FBS): 1 µg/mL (≈ 2.86 µM)
MIC (S. pneumoniae; WCH43 (serotype 4), 5% FBS): 0.125 µg/mL (≈ 0.358 µM)
MIC (S. pneumoniae; WCH46 (serotype 4), 5% FBS): 0.125 µg/mL (≈ 0.358 µM)
MIC (S. pneumoniae; WCH57 (serotype 8), 5% FBS): 0.5 µg/mL (≈ 1.43 µM)
MIC (S. pneumoniae; WCH77 (serotype 5), 5% FBS): 0.5 µg/mL (≈ 1.43 µM)
MIC (S. pneumoniae; WCH86 (serotype 4), 5% FBS): 0.06 µg/mL (≈ 0.172 µM)
MIC (S. pneumoniae; WCH89 (serotype 7), 5% FBS): 0.125 µg/mL (≈ 0.358 µM)
MIC (S. pneumoniae; WCH92 (serotype 4), 5% FBS): 0.5 µg/mL (≈ 1.43 µM)
MIC (S. pneumoniae; WCH137 (serotype 6A), 5% FBS): 0.06 µg/mL (≈ 0.172 µM)
MIC (S. pneumoniae; WCH158 (serotype 19F), 5% FBS): 0.125 µg/mL (≈ 0.358 µM)
MIC (S. pneumoniae; WCH184 (serotype 19F), 5% FBS): 0.125 µg/mL (≈ 0.358 µM)
MIC (S. pneumoniae; WCH211 (serotype 11), 5% FBS): 0.125 µg/mL (≈ 0.358 µM)
MIC (S. pneumoniae; WU2 (serotype 3), 5% FBS): 0.125 µg/mL (≈ 0.358 µM)
MIC90 (S. aureus; 23 isolates): > 16 µg/mL
MIC (S. aureus; [4]): 2 µg/mL (≈ 5.72 µM)
MIC (S. aureus; [5]): > 16 µg/mL
MIC (S. aureus; [6]): > 16 µg/mL
MIC (S. aureus; [7]): > 16 µg/mL
MIC (S. aureus; [8]): > 16 µg/mL
MIC (S. aureus; [9]): > 16 µg/mL
MIC (S. aureus; [10]): 8 µg/mL (≈ 22.9 µM)
MIC (S. aureus; [11]): > 16 µg/mL
MIC (S. aureus; [12]): > 16 µg/mL
MIC (S. aureus; [13]): > 16 µg/mL
MIC (S. aureus; [14]): > 16 µg/mL
MIC (S. aureus; [15]): > 16 µg/mL
MIC50 (S. aureus; [16]): > 16 µg/mL
MIC90 (S. aureus; [16]): > 16 µg/mL
MIC (S. aureus; [17]): 8 µg/mL (≈ 22.9 µM)
MIC (S. aureus; [18]): 16 µg/mL (≈ 45.8 µM)
MIC (S. aureus; [19]): > 16 µg/mL
MIC (S. aureus; [20]): > 16 µg/mL
MIC (S. aureus; [21]): > 16 µg/mL

CCCCCCCCCC(=O)N[C@@H](Cc1c[nH]c2ccccc12)C(=O)N[C@H](CC(N)=O)C(=O)N[C@@H](CC(=O)O)C(=O)N[C@@H]1C(=O)NCC(=O)N[C@@H](CCCN)C(=O)N[C@@H](CC(=O)O)C(=O)N[C@H](C)C(=O)N[C@@H](CC(=O)O)C(=O)NCC(=O)N[C@H](CO)C(=O)N[C@@H]([C@H](C)CC(=O)O)C(=O)N[C@@H](CC(=O)c2ccccc2N)C(=O)O[C@@H]1C [Daptomycin, daptomycin]
MIC range (S. pneumoniae; [1]): 0.125 to 0.5 µg/mL
MIC90 (S. pneumoniae; 21 isolates): 0.5 µg/mL (≈ 0.309 µM)
MIC (S. pneumoniae; A66.1 (serotype 3), 5% FBS): 0.25 µg/mL (≈ 0.154 µM)
MIC (S. pneumoniae; [2]): 0.25 µg/mL
MIC (S. pneumoniae; [3]): 0.25 µg/mL (≈ 0.154 µM)
MIC (S. pneumoniae; D39/D39LUX (serotype 2), 10% FBS): 0.25 µg/mL (≈ 0.154 µM)
MIC (S. pneumoniae; EF3030 (serotype 19F), 5% FBS): 0.25 µg/mL (≈ 0.154 µM)
MIC (S. pneumoniae; L82016 (serotype 6B), 5% FBS): 0.25 µg/mL (≈ 0.154 µM)
MIC (S. pneumoniae; P9 (serotype 6A), 5% FBS): 0.25 µg/mL (≈ 0.154 µM)
MIC (S. pneumoniae; P21 (serotype 3), 5% FBS): 0.25 µg/mL (≈ 0.154 µM)
MIC50 (S. pneumoniae; S1 Table isolates, 5% FBS): 0.25 µg/mL (≈ 0.154 µM)
MIC90 (S. pneumoniae; S1 Table isolates, 5% FBS): 0.25 µg/mL (≈ 0.154 µM)
MIC (S. pneumoniae; TIGR4 (serotype 4), 5% FBS): 0.25 µg/mL (≈ 0.154 µM)
MIC (S. pneumoniae; WCH16 (serotype 6A), 5% FBS): 0.25 µg/mL (≈ 0.154 µM)
MIC (S. pneumoniae; WCH43 (serotype 4), 5% FBS): 0.25 µg/mL (≈ 0.154 µM)
MIC (S. pneumoniae; WCH46 (serotype 4), 5% FBS): 0.125 µg/mL (≈ 0.0771 µM)
MIC (S. pneumoniae; WCH57 (serotype 8), 5% FBS): 0.25 µg/mL (≈ 0.154 µM)
MIC (S. pneumoniae; WCH77 (serotype 5), 5% FBS): 0.5 µg/mL (≈ 0.309 µM)
MIC (S. pneumoniae; WCH86 (serotype 4), 5% FBS): 0.125 µg/mL (≈ 0.0771 µM)
MIC (S. pneumoniae; WCH89 (serotype 7), 5% FBS): 0.5 µg/mL (≈ 0.309 µM)
MIC (S. pneumoniae; WCH92 (serotype 4), 5% FBS): 0.125 µg/mL (≈ 0.0771 µM)
MIC (S. pneumoniae; WCH137 (serotype 6A), 5% FBS): 0.125 µg/mL (≈ 0.0771 µM)
MIC (S. pneumoniae; WCH158 (serotype 19F), 5% FBS): 0.125 µg/mL (≈ 0.0771 µM)
MIC (S. pneumoniae; WCH184 (serotype 19F), 5% FBS): 0.25 µg/mL (≈ 0.154 µM)
MIC (S. pneumoniae; WCH211 (serotype 11), 5% FBS): 0.25 µg/mL (≈ 0.154 µM)
MIC (S. pneumoniae; WU2 (serotype 3), 5% FBS): 0.125 µg/mL (≈ 0.0771 µM)
MIC90 (S. aureus; 23 isolates): 0.5 µg/mL (≈ 0.309 µM)
MIC (S. aureus; ATCC 12600 / MSSA, ATCC12600 [Xen29] (MSSA), 10% FBS): 0.5 µg/mL (≈ 0.309 µM)
MIC (S. aureus; ATCC 12600 / MSSA, ATCC12600 [Xen29] (MSSA), absence of FBS): 0.5 µg/mL (≈ 0.309 µM)
MIC (S. aureus; [4]): 0.5 µg/mL (≈ 0.309 µM)
MIC (S. aureus; ATCC 49775 / MSSA, ATCC 49775 (MSSA), absence of FBS): 0.5 µg/mL (≈ 0.309 µM)
MIC (S. aureus; [5]): 0.5 µg/mL (≈ 0.309 µM)
MIC (S. aureus; [6]): 0.5 µg/mL (≈ 0.309 µM)
MIC (S. aureus; [7]): 0.5 µg/mL (≈ 0.309 µM)
MIC (S. aureus; [8]): 1 µg/mL (≈ 0.617 µM)
MIC (S. aureus; [9]): 0.5 µg/mL (≈ 0.309 µM)
MIC (S. aureus; [10]): 0.5 µg/mL (≈ 0.309 µM)
MIC (S. aureus; [11]): 0.5 µg/mL (≈ 0.309 µM)
MIC (S. aureus; [12]): 0.5 µg/mL (≈ 0.309 µM)
MIC (S. aureus; [13]): 0.25 µg/mL (≈ 0.154 µM)
MIC (S. aureus; [14]): 0.5 µg/mL (≈ 0.309 µM)
MIC (S. aureus; [15]): 0.5 µg/mL (≈ 0.309 µM)
MIC50 (S. aureus; [16]): 0.5 µg/mL (≈ 0.309 µM)
MIC90 (S. aureus; [16]): 0.5 µg/mL (≈ 0.309 µM)
MIC (S. aureus; [17]): 0.5 µg/mL (≈ 0.309 µM)
MIC (S. aureus; [18]): 0.5 µg/mL (≈ 0.309 µM)
MIC (S. aureus; [19]): 0.5 µg/mL (≈ 0.309 µM)
MIC (S. aureus; [20]): 0.5 µg/mL (≈ 0.309 µM)
MIC (S. aureus; [21]): 0.5 µg/mL (≈ 0.309 µM)
